Data as given in patent US11723903B2, “Treatment of schizophrenia” (Vanda Pharmaceuticals Inc., priority 2015, dated 2023).

Tests used:
[1] = prescribing information approved as of the priority date; cited from earlier work
[2] = post-marketing experience (post-approval use): adverse reactions in treated patients; assay type: in vivo; conditions: for adverse reactions associated with treatment, identified during post-approval use: reported voluntarily from a population of uncertain size, frequency and causality not established
Text: This invention comprises the discovery through post-marketing experience that treatment of patients with iloperidone has been associated with specific adverse reactions.
Without limiting this invention to a particular mechanism of action, the enumerated reactions may be hypersensitivity reactions. An aspect of this invention therefore comprises amending the contraindications section and/or the adverse events section of the iloperidone package insert, i.e., prescribing information, to read more or less as follows: • 4 CONTRAINDICATIONS • FANAPT is contraindicated in individuals with a known hypersensitivity reaction to the product. […] Because these reactions were reported voluntarily from a population of uncertain size, it is not possible to reliably estimate their frequency or establish a causal relationship to drug exposure.

COc1cc(C(C)=O)ccc1OCCCN1CCC(c2noc3cc(F)ccc23)CC1 [iloperidone]
known hypersensitivity reactions to the product (Contraindications section) [1]: pruritus and urticaria
relative frequency among the enumerated reactions [2]: rash was the most common followed by swollen tongue and swollen lip
adverse reactions associated with treatment, identified during post-approval use [2]: anaphylaxis, angioedema, throat tightness, oropharyngeal swelling, swelling of the face, lip, mouth, and tongue; urticaria, rash, and pruritus
adverse reactions associated with treatment, identified during post-approval use ([2]; listed as FANAPT): retrograde ejaculation and hypersensitivity reactions (including anaphylaxis, angioedema, throat tightness, oropharyngeal swelling, swelling of the face, lip, mouth, and/or tongue; urticaria, rash, and pruritus)
